The test has as its target T1, Recombinant human His-tagged Trim24-PHD-bromodomain (Homo sapiens, UniProt O15164).
T1 construct: Recombinant human His-tagged Trim24-PHD-bromodomain (produced in-house); made in house
T1 sequence (O15164 824-1006 limits assumed): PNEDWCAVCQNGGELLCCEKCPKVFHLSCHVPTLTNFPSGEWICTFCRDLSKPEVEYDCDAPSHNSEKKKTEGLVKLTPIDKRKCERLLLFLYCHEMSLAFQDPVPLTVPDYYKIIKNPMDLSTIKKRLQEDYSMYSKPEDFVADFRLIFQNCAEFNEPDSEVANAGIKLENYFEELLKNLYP
The test can be described thus: Trim24 AlphaScreen Assay. The class given is binding. To be noted: 5 nM Trim24 protein, 15 nM biotinylated H3K23ac (1-33aa) peptide. A digest of the protocol: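 AlphaScreen read-out after 2 h with streptavidin donor and Ni-chelate acceptor beads at 10 ug/mL each, following 1 h room-temperature incubation of compound, His-tagged PHD-bromodomain protein and biotin-H3K23ac (1-33aa) peptide in Hepes pH 7.5 buffer with NaCl and Triton X-100. Signals normalised between no-compound and no-protein wells; IC50 from four-parameter logistic curves.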
Turning to `CCCOc1cc(Oc2cc3c(cc2NS(=O)(=O)c2cn(C)cn2)n(C)c(=O)n3C)ccc1F` [Example 105, N-(6-(4-fluoro-3-propoxyphenoxy)-1,3-dimethyl-2-oxo-2,3-dihydro-1H-benzo[d]imidazol-5-yl)-1-methyl-1H-imidazole-4-sulfonamide], the IC50 – broadly, the point on the concentration scale where inhibition reaches its midpoint – was 10 to 100 nM. In the case of `C=CCOc1cccc(S(=O)(=O)Nc2cc3c(cc2Oc2cccc(OCCC)c2)n(C)c(=O)n3C)c1` [Example 106, 3-(allyloxy)-N-(1,3-dimethyl-2-oxo-6-(3-propoxyphenoxy)-2,.3-dihydro-1H-benzo[d]imidazol-5-yl)benzenesulfonamide], the 50% inhibitory concentration (IC50) fell in the range of 100 to 1000 nM. In the case of `CCCOc1cc(C#N)cc(Oc2cc3c(cc2NS(=O)(=O)c2cn(C)c(C)n2)n(C)c(=O)n3C)c1` [Example 107, N-(6-(3-cyano-5-propoxyphenoxy)-1,3-dimethyl-2-oxo-2,3-dihydro-1H-benzo[d]imidazol-5-yl)-1,2-dimethyl-1H-imidazole-4-sulfonamide] it was 10 to 100 nM; in that of `CCCOc1cc(C#N)cc(Oc2cc3c(cc2NS(=O)(=O)c2cn(C)cn2)n(C)c(=O)n3C)c1` [Example 108, N-(6-(3-cyano-5-propoxyphenoxy)-1,3-dimethyl-2-oxo-2,3-dihydro-1H-benzo[d]imidazol-5-yl)-1-methyl-1H-imidazole-4-sulfonamide], 10 to 100 nM; in that of `CCCOc1cc(C#N)cc(Oc2cc3c(cc2NS(=O)(=O)c2ccc(OC)c(OC)c2)n(C)c(=O)n3C)c1` [Example 109, N-(6-(3-cyano-5-propoxyphenoxy)-1,3-dimethyl-2-oxo-2,3-dihydro-1H-benzo[d]imidazol-5-yl)-3,4-dimethoxybenzenesulfonamide], 10 to 100 nM.

Turning to `CCCOc1cccc(Oc2cc3c(cc2NS(=O)(=O)c2cn(C)cn2)n(C)c(=O)n3C)c1Cl` [Example 111, N-(6-(2-chloro-3-propoxyphenoxy)-1,3-dimethyl-2-oxo-2,3-dihydro-1H-benzo[d]imidazol-5-yl)-1-methyl-1H-imidazole-4-sulfonamide], the IC50 is more than 1000 nM. With `CCCOc1cc(Oc2cc3c(cc2NS(=O)(=O)c2cn(C)cn2)n(C)c(=O)n3C)ccc1Cl` [Example 112, N-(6-(4-chloro-3-propoxyphenoxy)-1,3-dimethyl-2-oxo-2,3-dihydro-1H-benzo[d]imidazol-5-yl)-1-methyl-1H-imidazole-4-sulfonamide] the figure was 100 to 1000 nM.

For the compound `CCCOc1ccc(OC)c(Oc2cc3c(cc2NS(=O)(=O)c2cn(C)cn2)n(C)c(=O)n3C)c1` [Example 113, N-(6-(2-methoxy-5-propoxyphenoxy)-1,3-dimethyl-2-oxo-2,3-dihydro-1H-benzo[d]imidazol-5-yl)-1-methyl-1H-imidazole-4-sulfonamide], the IC50 fell in the range of 100 to 1000 nM.

Take `CCCOc1cc(Oc2cc3c(cc2NS(=O)(=O)c2cn(C)cn2)n(C)c(=O)n3C)ccc1OC` [Example 114, N-(6-(4-methoxy-5-propoxyphenoxy)-1,3-dimethyl-2-oxo-2,3-dihydro-1H-benzo[d]imidazol-5-yl)-1-methyl-1H-imidazole-4-sulfonamide]: the IC50 was more than 1000 nM.

Regarding `Cn1cnc(S(=O)(=O)Nc2cc3c(cc2Oc2cc(OCC4CC4)cc(OCC4CC4)c2)n(C)c(=O)n3C)c1` [Example 117, N-(6-(3,5-bis(cyclopropylmethoxy)phenoxy)-1,3-dimethyl-2-oxo-2,3-dihydro-1H-benzo[d]imidazol-5-yl)-1-methyl-1H-imidazole-4-sulfonamide], the half-maximal inhibitory concentration (IC50) was in the range of 10 to 100 nM.

Take `CCCOc1cc(OCC2CC2)cc(Oc2cc3c(cc2NS(=O)(=O)c2cccnc2)n(C)c(=O)n3C)c1` [Example 118, N-(6-(3-(cyclopropylmethoxy)-5-propoxyphenoxy)-1,3-dimethyl-2-oxo-2,3-dihydro-1H-benzo[d]imidazol-5-yl)pyridine-3-sulfonamide]: the IC50 lay in the range of 10 to 100 nM. Regarding `CCCOc1cc(OCCCCCCNC(=O)OC(C)(C)C)cc(Oc2cc3c(cc2NS(=O)(=O)c2cn(C)cn2)n(C)c(=O)n3C)c1` [Example 119, tert-butyl (6-(3-((1,3-dimethyl-6-((1-methyl-1H-imidazole)-4-sulfonamido)-2-oxo-2,3-dihydro-1H-benzo[d]imidazol-5-yl)oxy)-5-propoxyphenoxy)hexyl)carbamate], the IC50 lay within 100 to 1000 nM. Turning to `COCCCOc1cc(C#N)cc(Oc2cc3c(cc2NS(=O)(=O)c2cn(C)c(C)n2)n(C)c(=O)n3C)c1` [Example 120, N-(6-(3-cyano-5-(3-methoxypropoxy)phenoxy)-1,3-dimethyl-2-oxo-2,3-dihydro-1H-benzo[d]imidazol-5-yl)-1,2-dimethyl-1H-imidazole-4-sulfonamide], the IC50 fell in the range of 100 to 1000 nM. With `COCCCOc1cc(C#N)cc(Oc2cc3c(cc2NS(=O)(=O)c2ccn(C)n2)n(C)c(=O)n3C)c1` [Example 121, N-(6-(3-cyano-5-(3-methoxypropoxy)phenoxy)-1,3-dimethyl-2-oxo-2,3-dihydro-1H-benzo[d]imidazol-5-yl)-1-methyl-1H-pyrazole-3-sulfonamide] the figure was 100 to 1000 nM. With `COCCCOc1cc(OCCCOC)cc(Oc2cc3c(cc2NS(=O)(=O)c2ccc(OC)c(OC)c2)n(C)c(=O)n3C)c1` [Example 122, N-(6-(3,5-bis(3-methoxypropoxy)phenoxy)-1,3-dimethyl-2-oxo-2,3-dihydro-1H-benzo[d]imidazol-5-yl)-3,4-dimethoxybenzenesulfonamide] the figure was 10 to 100 nM; with `COCCCOc1cc(OCCCOC)cc(Oc2cc3c(cc2NS(=O)(=O)c2cn(C)c(C)n2)n(C)c(=O)n3C)c1` [Example 123, N-(6-(3,5-bis(3-methoxypropoxy)phenoxy)-1,3-dimethyl-2-oxo-2,3-dihydro-1H-benzo[d]imidazol-5-yl)-1,2-dimethyl-1H-imidazole-4-sulfonamide], 10 to 100 nM. `CCCOc1cc(OCCCC#N)cc(Oc2cc3c(cc2NS(=O)(=O)c2cn(C)c(C)n2)n(C)c(=O)n3C)c1` [Example 124, N-(6-(3-(3-cyanopropoxy)-5-propoxyphenoxy)-1,3-dimethyl-2-oxo-2,3-dihydro-1H-benzo[d]imidazol-5-yl)-1,2-dimethyl-1H-imidazole-4-sulfonamide]: the IC50 fell in the range of 10 to 100 nM. As to `CCCOc1cc(OCC2CC2)cc(Oc2cc3c(cc2NS(=O)(=O)c2cn(C)cn2)n(C)c(=O)n3C)c1` [Example 126, N-(6-(3-(cyclopropylmethoxy)-5-propoxyphenoxy)-1,3-dimethyl-2-oxo-2,3-dihydro-1H-benzo[d]imidazol-5-yl)-1-methyl-1H-imidazole-4-sulfonamide], the 50% inhibitory concentration (IC50) lay in the range of 10 to 100 nM. Turning to `COc1ccc(S(=O)(=O)Nc2cc3c(cc2Oc2cccc(OCC4CC4)c2)n(C)c(=O)n3C)cc1OC` [Example 127, N-(6-(3-(cyclopropylmethoxy)phenoxy)-1,3-dimethyl-2-oxo-2,3-dihydro-1H-benzo[d]imidazol-5-yl)-3,4-dimethoxybenzenesulfonamide], the IC50 lay within 10 to 100 nM. In the case of `Cn1c(=O)n(C)c2cc(Oc3cccc(OCC4CC4)c3)c(NS(=O)(=O)c3cccnc3)cc21` [Example 128, N-(6-(3-(cyclopropylmethoxy)phenoxy)-1,3-dimethyl-2-oxo-2,3-dihydro-1H-benzo[d]imidazol-5-yl)pyridine-3-sulfonamide] it was 10 to 100 nM. Turning to `Cc1nc(S(=O)(=O)Nc2cc3c(cc2Oc2ccc(F)c(OCC4CC4)c2)n(C)c(=O)n3C)cn1C` [Example 130, N-(6-(3-(cyclopropylmethoxy)-4-fluorophenoxy)-1,3-dimethyl-2-oxo-2,3-dihydro-1H-benzo[d]imidazol-5-yl)-1,2-dimethyl-1H-imidazole-4-sulfonamide], the IC50 was more than 1000 nM.

As to `COc1ccc(S(=O)(=O)Nc2cc3c(cc2Oc2ccc(F)c(OCC4CC4)c2)n(C)c(=O)n3C)cc1OC` [Example 131, N-(6-(3-(cyclopropylmethoxy)-4-fluorophenoxy)-1,3-dimethyl-2-oxo-2,3-dihydro-1H-benzo[d]imidazol-5-yl)-3,4-dimethoxybenzenesulfonamide], the IC50 lay within 100 to 1000 nM. As to `Cn1c(=O)n(C)c2cc(Oc3cccc(OCC4CC4)c3)c(NS(=O)(=O)c3cn[nH]c3)cc21` [Example 132, N-(6-(3-(cyclopropylmethoxy)phenoxy)-1,3-dimethyl-2-oxo-2,3-dihydro-1H-benzo[d]imidazol-5-yl)-1H-pyrazole-4-sulfonamide], the concentration for half-maximal inhibition (IC50) was in the range of 100 to 1000 nM.

On to `CCCOc1ccc(F)c(Oc2cc3c(cc2NS(=O)(=O)c2cn(C)c(C)n2)n(C)c(=O)n3C)c1` [Example 133, N-(6-(2-fluoro-5-propoxyphenoxy)-1,3-dimethyl-2-oxo-2,3-ddihydro-1H-benzo[d]imidazol-5-yl)-1,2-dimethyl-1H-imidazole-4-sulfonamide], for which the IC50 is 100 to 1000 nM. In the case of `CCCOc1ccc(F)c(Oc2cc3c(cc2NS(=O)(=O)c2ccc(OC)c(OC)c2)n(C)c(=O)n3C)c1` [Example 134, N-(6-(2-fluoro-5-propoxyphenoxy)-1,3-dimethyl-2-oxo-2,3-dihydro-1H-benzo[d]imidazol-5-yl)-3,4-dimethoxybenzenesulfonamide] it was 10 to 100 nM; in that of `CCCOc1ccc(F)c(Oc2cc3c(cc2NS(=O)(=O)c2cccnc2)n(C)c(=O)n3C)c1` [Example 135, N-(6-(2-fluoro-5-propoxyphenoxy)-1,3-dimethyl-2-oxo-2,3-dihydro-1H-benzo[d]imidazol-5-yl)pyridine-3-sulfonamide], 10 to 100 nM.

In the case of `Cc1n[nH]c(C)c1S(=O)(=O)Nc1cc2c(cc1Oc1cccc(OCC3CC3)c1)n(C)c(=O)n2C` [Example 136, N-(6-(3-(cyclopropylmethoxy)phenoxy)-1,3-dimethyl-2-oxo-2,3-dihydro-1H-benzo[d]imidazol-5-yl)-3,5-dimethyl-1H-pyrazole-4-sulfonamide], the IC50 fell in the range of 10 to 100 nM.

(Values after patent publication US20160060260A1, “BROMODOMAIN INHIBITORS FOR TREATING DISEASE” (Board of Regents, The University of Texas System, priority 2014, published 2016).)
